Among the data in ChEMBL document CHEMBL5584246, “Novel dihydropyrimidines as promising EGFR & HER2 inhibitors: Insights from experimental and computational studies” (Eur J Med Chem, 2024) are IC50 values, retold here.

Broadly, the IC50 is the concentration that gives 50% inhibition.

The test system of one data set is MCF7. The data set is described as follows: Cytotoxicity against human MCF7 cells assessed as inhibition of cell growth measured after 3 days by MTT assay. It is filed as functional, cell-based. As to conditions: MCF7, 72 h. In general terms: Tetrazolium assays rely on reduction of a dye to a coloured formazan, in cell work by metabolically active cells.
On to `COc1ccc(NC(=O)C2=C(C)NC(=O)NC2c2cccc(Br)c2)c(OC)c1` (stereo unspecified), for which the half-inhibitory concentration (IC50) was 31.2 µM.
Consider `COc1ccc(NC(=O)C2=C(C)NC(=O)NC2c2ccc(O)cc2)c(OC)c1` (stereo unspecified), for which the IC50 stood at 29.3 µM.
Still for that read-out and setting: the result for `COc1ccc(NC(=O)C2=C(C)NC(=O)NC2c2ccc(C)cc2)c(OC)c1` (stereo unspecified) reads 33.5 µM; that for `COc1ccc(NC(=O)C2=C(C)NC(=S)NC2c2ccc(C)cc2)c(OC)c1` (stereo unspecified), 38.2 µM; that for `COc1ccc(NC(=O)C2=C(C)NC(=S)NC2c2ccc(Br)cc2)c(OC)c1` (stereo unspecified), 37.5 µM.
Same read-out and setting: the result for `COc1ccc(NC(=O)C2=C(C)NC(=O)NC2c2ccccc2)c(OC)c1` (stereo unspecified) reads 38.2 µM.
Consider `COc1ccc(NC(=O)C2=C(C)NC(=S)NC2c2cccc(O)c2)c(OC)c1` (stereo unspecified), for which the IC50 worked out at 34.8 µM.
The same measure, in the same setting: as for `COc1ccc(NC(=O)C2=C(C)NC(=O)NC2c2ccc(O)c(OC)c2)c(OC)c1` (stereo unspecified), the figure is 16.1 µM.
On the same count and under the same terms, as for `COc1ccc(NC(=O)C2=C(C)NC(=O)NC2/C=C\c2ccccc2)c(OC)c1` (stereo unspecified), the figure is 19.3 µM; as for `CCOc1cc(C2NC(=S)NC(C)=C2C(=O)Nc2ccc(OC)cc2OC)ccc1O` (stereo unspecified), 25.3 µM.
Still for that read-out and setting: as for `COc1ccc(NC(=O)C2=C(C)NC(=S)NC2c2ccc(N(C)C)cc2)c(OC)c1` (stereo unspecified), the figure is 25.1 µM; as for `COc1ccc(C2NC(=O)NC(C)=C2C(=O)Nc2ccc(OC)cc2OC)cc1` (stereo unspecified), 24.3 µM; as for `COc1ccc(NC(=O)C2=C(C)NC(=S)NC2c2c[nH]c3ccccc23)c(OC)c1` (stereo unspecified), 29.4 µM.
Take `COc1ccc(NC(=O)C2=C(C)NC(=S)NC2/C=C\c2ccccc2)c(OC)c1` (stereo unspecified): the half-maximal inhibitory concentration (IC50) was found to be 24.5 µM.
Still for that read-out and setting: the result for `COc1ccc(NC(=O)C2=C(C)NC(=O)NC2c2ccc(Cl)cc2Cl)c(OC)c1` (stereo unspecified) reads 32.4 µM; that for `COc1ccc(NC(=O)C2=C(C)NC(=O)NC2c2ccccc2[N+](=O)[O-])c(OC)c1` (stereo unspecified), 40.1 µM.
Regarding `COc1ccc(NC(=O)C2=C(C)NC(=S)NC2c2ccco2)c(OC)c1` (stereo unspecified), the concentration for half-maximal inhibition (IC50) was 38.3 µM.
Still for that read-out and setting: as for `COc1ccc(NC(=O)C2=C(C)NC(=O)NC2c2cccc(Cl)c2)c(OC)c1` (stereo unspecified), the figure is 38.2 µM.

Tested on in a further data set: not listed separately
The data set can be described thus: Cytotoxicity against African green monkey Vero cells assessed as inhibition of cell growth measured after 3 days by MTT assay. Type of data set: toxicity, cell-based. The following applies: African green monkey (Chlorocebus sabaeus).
As for `COc1ccc(NC(=O)C2=C(C)NC(=O)NC2c2cccc(Br)c2)c(OC)c1` (stereo unspecified), the half-maximal inhibitory concentration (IC50) at 3 days is 48.1 µM.
Turning to `COc1ccc(NC(=O)C2=C(C)NC(=O)NC2c2ccc(O)cc2)c(OC)c1` (stereo unspecified), the half-inhibitory concentration (IC50) at 3 days was determined as 55.2 µM.
The same measure, in the same setting: as for `COc1ccc(NC(=O)C2=C(C)NC(=O)NC2c2ccc(C)cc2)c(OC)c1` (stereo unspecified), the figure is 60 µM.
Same read-out and setting: the result for `COc1ccc(NC(=O)C2=C(C)NC(=S)NC2c2ccc(C)cc2)c(OC)c1` (stereo unspecified) reads 53.6 µM; that for `COc1ccc(NC(=O)C2=C(C)NC(=S)NC2c2ccc(Br)cc2)c(OC)c1` (stereo unspecified), 61.2 µM; that for `COc1ccc(NC(=O)C2=C(C)NC(=O)NC2c2ccccc2)c(OC)c1` (stereo unspecified), 60.4 µM.
Still for that read-out and setting: as for `COc1ccc(NC(=O)C2=C(C)NC(=S)NC2c2cccc(O)c2)c(OC)c1` (stereo unspecified), the figure is 69.2 µM; as for `COc1ccc(NC(=O)C2=C(C)NC(=O)NC2c2ccc(O)c(OC)c2)c(OC)c1` (stereo unspecified), 42.9 µM.
Regarding `COc1ccc(NC(=O)C2=C(C)NC(=O)NC2/C=C\c2ccccc2)c(OC)c1` (stereo unspecified), the half-maximal inhibitory concentration (IC50) at 3 days is 30.4 µM.
The same measure, in the same setting: the result for `CCOc1cc(C2NC(=S)NC(C)=C2C(=O)Nc2ccc(OC)cc2OC)ccc1O` (stereo unspecified) reads 57.4 µM; that for `COc1ccc(NC(=O)C2=C(C)NC(=S)NC2c2ccc(N(C)C)cc2)c(OC)c1` (stereo unspecified), 53.1 µM; that for `COc1ccc(C2NC(=O)NC(C)=C2C(=O)Nc2ccc(OC)cc2OC)cc1` (stereo unspecified), 56.2 µM.
`COc1ccc(NC(=O)C2=C(C)NC(=S)NC2c2c[nH]c3ccccc23)c(OC)c1` (stereo unspecified): the half-maximal inhibitory concentration (IC50) at 3 days is 50.3 µM.
For the compound `COc1ccc(NC(=O)C2=C(C)NC(=S)NC2/C=C\c2ccccc2)c(OC)c1` (stereo unspecified), the 50% inhibitory concentration (IC50) at 3 days was determined as 47.3 µM.
Take `COc1ccc(NC(=O)C2=C(C)NC(=O)NC2c2ccc(Cl)cc2Cl)c(OC)c1` (stereo unspecified): the IC50 at 3 days is 63.5 µM.
On the same count and under the same terms, as for `COc1ccc(NC(=O)C2=C(C)NC(=O)NC2c2ccccc2[N+](=O)[O-])c(OC)c1` (stereo unspecified), the figure is 55.3 µM; as for `COc1ccc(NC(=O)C2=C(C)NC(=S)NC2c2ccco2)c(OC)c1` (stereo unspecified), 45.5 µM; as for `COc1ccc(NC(=O)C2=C(C)NC(=O)NC2c2cccc(Cl)c2)c(OC)c1` (stereo unspecified), 73.4 µM.
